Like-named read-outs stand apart in the source and are kept apart here. Blank lines part the entries; values can stand above or below the molecule they belong to.
Key:
[1] = cited from earlier work
[2] = F3 block stability study in sodium stearate aqueous gel (GC-MS); assay type: physicochemical; settings: after 3 months
Experimental: Aqueous sodium stearate gel is a method used by SIGNS for several of the pheromones it markets (pork, poultry, rabbit). The sodium stearate matrix is cast at high temperature (60° C.) and contains 2% pheromone. In this study, matrix samples are taken by coring, and the active ingredients are extracted by apolar solvent, using the SIGNS-validated quality control method. Extracts are analyzed by GC-MS. […] Given this observation, formula F3 cannot be used in blocks for passive diffusion, so a change of galenic formulation is necessary.

[3] = F3 sticks device, direct diffusion, 40 mL and four sticks (SPME GC/MS); assay type: physicochemical; settings: four sticks
Experimental: Three devices containing 40 mL of F3 feline facial pheromone product and four rattan sticks were prepared and left on diffusion. Every Monday, Wednesday and Friday, the diffusion of the pheromone in air was checked by analysis by gas chromatography coupled with mass spectrometer (GC/MS) and SPME (solid phase microextraction) until there is no liquid left (about 22 days).
To that purpose, the studied device was taken and placed into a closed space (in our case an aquarium turned over) containing the SPME fiber as shown on FIG. 24.
The SPME fiber was left for two hours to give the time for the molecules to adsorb on the fiber, then the fiber was injected into the GC/MS instrument for analysis.
Analysis were carried out using gas chromatography with mass spectrometer. The instrument was a GCMS QP2010SE® from Shimadzu with an AOC6000® Autosampler. The separation was performed on a ZB-5 MS® column (30 m×0.25 mm×0.25 μm, stationary phase: 95% Dimethylpolysiloxane, 5% Phenyl-Arylene) from Phenomenex. The GC oven temperature was initially held at 100° C. for 1 minute then increased at a pace of 10° C./min to 120° C. and left at this temperature for 3 minutes. Finally, the oven temperature was increased at a pace of 10° C./min to 240° C. and left at this temperature for 10 minutes. The carrier gas was helium at 1 mL/min. Analysis were performed in split mode using a split/splitless injector (Temperature: 250° C., split: 1:20). The SPME fiber was directly injected into the injector and left for 30 minutes. Separated molecules were detected using a mass spectrometer which was operated in electron impact ionization (EI) in both full scan (FS) and single ion monitoring (SIM) modes, so called FASST (Fast Automated SCAN/SIM type) mode. The interface temperature was set at 300° C. and electron impact source temperature at 250° C. The analyser was a quadrupole.
For the measurement of the relative quantity of active ingredient spreading in air, the area of the chromatographic peak corresponding to the compound was measured using Shimadzu GCMS-Solution software.

[4] = F3 migration along the stick (top 1 cm, GC/MS); assay type: physicochemical; settings: F3, five sticks
Experimental: Three devices containing 40 mL of F3 feline facial pheromone product and five […] sticks were prepared and left on diffusion. A t=1 day, T=3 days, T=10 days, T=15 days and T=22 days after preparation of the devices, one stick was taken on each device and 1 cm of the top of each stick was cut, then extracted with acetone 1 h in an ultrasonic bath and analysed by gas chromatography coupled with mass spectrometry (GC/MS). The same analytical parameters were used for the study C with a liquid injection (injected quantity: […]) Blank analysis and matrix blank analysis were also performed.

[5] = Ratios of molecules diffused through the sticks over time; assay type: physicochemical
Experimental: Furthermore, as small molecules diffuse more, it happens that they lose intensity over the course of the study, so the ratios are different 24 hours after immersing the sticks in the liquid and 21 days later. Here are the ratios for each pheromone studied at the start of the study and at the end.

[6] = Indirect assay of diffuser blocks (GC/FID, pheromone remaining in the block); assay type: physicochemical; settings: despecified pheromone
Experimental: Analyses were carried out using the gas chromatography (GC) technique with a flame ionization detector (FID), commonly known as GC/FID. The instrument used was the Shimadzu GC2025.® • Injection: Quantity injected: 1 μL, split 50:1, temperature: 230° C. • Separation: DB-WAX column (Agilent), length: 20 m, diameter: 180 μm, film thickness: […] • Carrier gas: Helium (He) • Analysis time: 11.50 min (not including time to return to equilibrium between each analysis) injection). • Detection: FID, temperature: 250° C., flow rates: H2: 40 mL/min, Air: 400 mL/min, Nitrogen (make-up): 30 mL/min. To obtain a representative sample, “cores” were drilled at various positions in the block and then collected. 2.5 g of gel were weighed into a 50 mL volumetric flask and the volume made up to the beginning of the neck of the flask with acetone. The flask was then placed in an ultrasonic bath for one hour until the block was dissolved (a white precipitate was obtained), then acetone was added to the mark. An aliquot of this solution was placed in a syringe fitted with a syringe filter and filtered to obtain a translucent solution. The resulting solution was transferred to a 1.5 mL GC vial for analysis. The assays were carried out using a calibration range.

[7] = Direct diffusion of diffuser blocks (SPME GC/MS); assay type: physicochemical; settings: despecified pheromone 2%, 4 weeks
Experimental: Analyses were carried out using gas chromatography (GC) coupled to a mass spectrometer (MS) detector, a technique commonly referred to as GCMS. The molecules of interest were extracted using the Solid Phase Micro-Extraction (SPME) technique. The instrument used was the following: QP2010SE® from Shimadzu (See FIG. 4).
AOC 6000® automatic feeder • Extraction/SPME fiber: polyacrylate/Fused silica (85 μm), 23 Ga. • Adsorption time: 2 hours (exposure time of fiber above block) (See FIG. 4) • Desorption time: 30 minutes (fiber exposure time in injector) • Fiber-block distance: 2 cm • Injection: split/splitless injector • Temperature: 250° C., split 50 mode. • Separation: ZB-FFAP® column (Phénomenex), length: 30 m, diameter: 250 μm, film thickness: […]
• Carrier gas: Helium (He) • Analysis time: 18 min (not including time to return to equilibrium between each analysis injection • Detection: mass spectrometer with electron impact source/analyzer: quadrupole. • Source temperature: 200° C. • Interface temperature: 250° C. • Scan m/z 50 to m/z 500 • SIM with ions 55, 66 and 74.
Analyses were carried out in triplicate to verify reproducibility of results.
With the SPME method, results are evaluated by measuring the chromatographic peak area. The data have been plotted on diffusion curve (see FIGS. 5 and 6).

[8] = Indirect assay of rod diffuser solution (GC/FID); assay type: physicochemical; settings: stick diffuser solution, despecified pheromone
Experimental: Solution integrity was checked at each analysis time. Before each indirect assay, the vial was weighed to visualize mass loss over time. Each vial contained six sticks. • Specifications: the solution must lose mass over time. • Result: Compliant—See FIG. 9 This is the same analytical method as for the diffuser block study, only the sample preparation differs. 1.25 g of solution were weighed into a 25 mL volumetric flask and the volume made up to the mark with acetone. The resulting solution is transferred to a 1.5 mL GC vial for analysis. This is exactly the same calibration range as for the diffuser block study.

[9] = Pheromone migrated to the stick tips (GC/FID); assay type: physicochemical; settings: on stick tips, despecified pheromone
Experimental: In the course of this study, we also measured the amount of pheromone migrating on the sticks, to check that the pheromone had migrated to the top of the sticks, helping it to diffuse into the air. To do this, the test is the same as for the diffuser blocks: 2.5 g of stick tips are cut off and placed in a 50 mL flask, which is then placed in an ultrasonic bath for one hour. The resulting solution is filtered (to avoid injecting particles into the instrument) and placed in a chromatographic vial for analysis.

[10] = DAP PCDS direct diffusion (SPME-GC/MS); assay type: physicochemical; settings: DAP/PCDS diffuser, 40 mL, 6 capillaries
Experimental: Three diffusers, each containing 40 mL of solution and 6 capillaries, were prepared and diffused. The first points were measured at T=1d, T=2, and T=3d, then every Monday, Wednesday and Friday of each study week until the diffusers no longer contained any solution. To measure the pheromone released into the air at each study time, the diffuser is first weighed (with the sticks) to measure mass loss, then placed in an enclosed area (in this case, an upside-down aquarium) containing a SPME fiber, as shown in FIG. 24.
The fiber is left to diffuse above the diffuser for 2 hours (a time determined in a previous method development as the optimum time for molecules to adsorb to the phase), then analyzed using the gas chromatography/mass spectrometry (GC/MS) technique.
Three diffusers were studied for greater accuracy. The chromatograms obtained are reprocessed using GC/MS Solution software.
For each chromatographic peak, the area is recorded using GC/MS Solution software, then entered into an Excel spreadsheet. Diffusion curves giving the area of the chromatographic peak corresponding to each active ingredient as a function of time are then plotted.
Analyses were carried out by gas chromatography/mass spectrometry (GC/MS). The instrument was a Shimadzu GCMS QP2010SE® equipped with an AOC 6000® autosampler. Separation was carried out on a ZB-FFAP® column (30 m×0.25 mm×0.25 μm, stationary phase: nitroterephthalic acid-modified polyethylene glycol) supplied by Phenomenex. The furnace temperature was initially set at 80° C. for 1 minute, then increased at 10° C./min to 240° C. and maintained at this temperature for 2 minutes. The carrier gas was helium at a flow rate of 1 mL/min. Analysis time is 19 minutes.
The injector is a split/splitless injector used in split mode (temperature: 250° C., split: 50:1). The SPME fiber was injected directly into the injector and left to desorb for 15 minutes.
The separated molecules were detected using a mass spectrometer equipped with an electron impact source (temperature: 200° C.). The analyzer is a simple quadrupole. The interface temperature is 250° C. Data were acquired in FASST mode (Fast automated SCAN/SIM type), i.e. part of the analysis was performed by scanning all ions (SCAN) and part by selecting specific ions (SIM). Target molecules were thus analyzed using ion selection.

[11] = F3P, 24 h after immersion of the sticks
[12] = F3P, 21 days after immersion of sticks (empty tank)
[13] = DAP, 24 h after immersion of sticks
[14] = DAP, 21 days after immersion of sticks (empty tank)

Compound: COC(C)(C)CCO [3-methoxy-3-methyl-1-butanol]
vapor pressure ([1]; at 20° C.): 0.07 kPa
vapor pressure ([1]; at 25° C.): 0.12 kPa

Compound: COC(=O)CCCCCCCC(=O)OC [dimethyl azelate, dimethyl nonanedioate]
stability in the block [2]: disappeared completely
direct diffusion over time [3]: constant diffusion
relative quantity on the top of the stick [4]: less present
ratio of molecules diffused through the sticks ([5]; F3, 24 h after immersion of sticks): 25 % (w/w)
ratio of molecules diffused through the sticks ([5]; F3, 21 days after immersion of sticks (empty tank)): 43 % (w/w)
ratio of molecules diffused through the sticks [5, 11]: 18 % (w/w)
ratio of molecules diffused through the sticks [5, 12]: 31.3 % (w/w)

Other lines, results leading:

% of the active ingredient in the pheromone ([6]; day 0): 30.4%
% of the active ingredient in the pheromone ([6]; day 7): 30.2%
% of the active ingredient in the pheromone ([6]; day 14): 30.4%
% of the active ingredient in the pheromone ([6]; day 21): 30.5%
% of the active ingredient in the pheromone ([6]; day 28): 30.5%
direct diffusion from the diffuser block [7]: lowest intensity
% of the active ingredient in the pheromone ([8]; day 0): 30.0%
% of the active ingredient in the pheromone ([8]; day 7): 30.0%
% of the active ingredient in the pheromone ([8]; day 14): 30.1%
% of the active ingredient in the pheromone ([8]; day 21): 31.5%
% of the active ingredient in the pheromone ([9]; day 7): 29.7%
% of the active ingredient in the pheromone ([9]; day 14): 30.1%
% of the active ingredient in the pheromone ([9]; day 21): 28.6%
direct diffusion over time [10]: slight increase over time
ratio of molecules diffused through the sticks [5, 13]: 3 % (w/w)
ratio of molecules diffused through the sticks [5, 14]: 4 % (w/w)
ratio of molecules diffused through the sticks ([5]; Despecified pheromone (Core), 5 days after immersion of the sticks): 2 % (w/w)
ratio of molecules diffused through the sticks ([5]; Despecified pheromone (Core), 21 days after immersion of sticks (empty tank)): 4 % (w/w)
ratio of molecules diffused through the sticks [5, 11]: 0.3 % (w/w)
ratio of molecules diffused through the sticks [5, 12]: 0.5 % (w/w)
Compound: CCCCC/C=C\C/C=C\CCCCCCCC(=O)OC [methyl linoleate, methyl (9Z,12Z)-octadeca-9,12-dienoate]

direct diffusion over time [10]: slight increase over time
ratio of molecules diffused through the sticks [5, 13]: 7 % (w/w)
ratio of molecules diffused through the sticks [5, 14]: 9 % (w/w)
Compound: CCCCCCCCCCCCCCC(=O)OC [methyl pentadecanoate]

direct diffusion over time [10]: diffuses the least
ratio of molecules diffused through the sticks [5, 13]: 0.5 % (w/w)
ratio of molecules diffused through the sticks [5, 14]: 1 % (w/w)
ratio of molecules diffused through the sticks [5, 11]: 0.1 % (w/w)
ratio of molecules diffused through the sticks [5, 12]: 0.1 % (w/w)
Compound: CCCCCCCCCCCCCCCCCC(=O)OC [methyl stearate, methyl octadecanoate]
